Experimental data as given in patent US9216977B2 (The University of North Carolina at Chapel Hill, priority 2009, dated 2015).
Read-outs that look alike come from different tables or passages of the source.

Legend:
HCT-8 = assay: in vitro screen against human tumor cell line HCT-8 (colon), GI50; assay type: cell-based; details: read-out: GI50 HCT-8
A549 = assay: in vitro screen against human tumor cell line A549 (lung), GI50; assay type: cell-based
DU145 = assay: in vitro screen against human tumor cell line DU-145 (prostate), GI50; assay type: cell-based; details: read-out: GI50 DU145
KB = assay: in vitro screen against human tumor cell line KB (nasopharyngeal), GI50; assay type: cell-based; details: for GI50: read-out: GI50 KB
KBvin = assay: in vitro screen against KBvin cell line, GI50; assay type: cell-based
[1] = Homo sapiens, HCT-8, Example 2, Table 3, 13-aza-cryptopleurines
[2] = Homo sapiens, A549, Example 2, Table 3, 13-aza-cryptopleurines, read-out: GI50 A549
[3] = Homo sapiens, DU-145, Example 2, Table 3, 13-aza-cryptopleurines
[4] = Homo sapiens, KB, Example 2, Table 3, 13-aza-cryptopleurines
[5] = Homo sapiens, KBVIN, Example 3, Table 1
[6] = Homo sapiens, A549, Example 3, Table 1, read-out: GI50 A549
[7] = Homo sapiens, DU-145, Example 3, Table 1
[8] = Homo sapiens, KB, Example 3, Table 1

Compound	GI50 (HCT-8; [1]) [µM]	melting point	GI50 (A549; [2]) [µM]	GI50 (DU145; [3]) [µM]	GI50 (KB; [4]) [µM]	GI50 (KBvin; [5]) [µM]	GI50 (A549; [6]) [µM]	GI50 (DU145; [7]) [µM]	GI50 (KB; [8]) [µM]	also measured
COC(=O)CN1CCN2Cc3c(c4cc(OC)c(OC)cc4c4cc(OC)ccc34)C[C@H]2C1 [Compound 8f, (S)-13-aza-13N-methoxycarbonylmethyl-cryptopleurine]	14	111 to 113 °C	14.7	20.8	14.7	–	–	–	–	–
COc1ccc2c3c(c4cc(OC)c(OC)cc4c2c1)C[C@H]1CN(CC2CC2)CCN1C3 [Compound 8g, (S)-13-aza-13N-cyclopropylmethyl-cryptopleurine]	0.25	160 to 162 °C	0.79	2.94	6.57	–	–	–	–	–
COc1ccc2c3c(c4cc(OC)c(OC)cc4c2c1)C[C@H]1CN(C2CC2)CCN1C3 [Compound 8h, (S)-13-aza-13N-cyclopropyl-cryptopleurine]	13	115 to 117 °C	23.2	17.9	23.4	–	–	–	–	–
COc1ccc2c3c(c4cc(OC)c(OC)cc4c2c1)C[C@H]1CN(C(=O)c2ccccc2)CCN1C3 [Compound 8i, (S)-13-aza-13N-benzoyl-cryptopleurine]	18.1	203 °C (dec.)	15	15.7	20.1	–	–	–	–	–
COc1ccc2c3c(c4cc(OC)c(OC)cc4c2c1)C[C@H]1CN(CCO)CCN1C3 [Compound 8j, (S)-13-aza-13N-hydroxylethyl-cryptopleurine]	7.41	266 °C (dec.)	14.1	12.6	8.62	–	–	–	–	–
COc1ccc2c(c1)c1c(c3cc(OC)c(OC)cc32)C[C@H]2CCN(C3CC3)CN2C1 [Compound 11e, (S)-12-aza-12N-cyclopropyl-cryptopleurine]	–	–	–	–	–	–	–	–	–	GI50 (HCT-8): 5.73 µM; GI50 (A549; read-out: GI50 A549): 4.3 µM; GI50 (DU145): 14.3 µM; GI50 (KB): 11.47 µM
COc1ccc2c3c(c4cc(OC)c(OC)cc4c2c1)C[C@H]1CCN(C)CN1C3 [Compound 11f, (S)-12-aza-12N-dimethylamino-cryptopleurine]	–	–	–	–	–	–	–	–	–	GI50 (HCT-8; Homo sapiens, HCT-8, Example 2, Table 4, 12-aza-cryptopleurines): 2.37 µM; GI50 (A549; Homo sapiens, A549, Example 2, Table 4, 12-aza-cryptopleurines, read-out: GI50 A549): 1.78 µM; GI50 (DU145; Homo sapiens, DU-145, Example 2, Table 4, 12-aza-cryptopleurines): 2.97 µM; GI50 (KB; Homo sapiens, KB, Example 2, Table 4, 12-aza-cryptopleurines): 3.08 µM
COc1ccc2c3c(c4cc(OC)c(OC)cc4c2c1)C[C@H]1C[C@H](O)[C@@H](O)CN1C3 [Compound 24a, (12S,13S,14aS)-12,13-dihydroxyl-cryptopleurine]	–	–	–	–	–	2.17	0.55	0.6	0.84	–
COc1ccc2c3c(c4cc(OC)c(OC)cc4c2c1)C[C@H]1C[C@@H](O)[C@H](O)CN1C3 [Compound 24b, (12R,13R,14aS)-12,13-dihydroxyl-cryptopleurine]	–	–	–	–	–	12.6	14.5	17.1	17.5	–
CC[C@@]1(O)CCN2Cc3c(c4cc(OC)c(OC)cc4c4cc(OC)ccc34)C[C@H]2C1 [Compound 25, (13R,14aS)-13-ethyl-13-hydroxyl-cryptopleurine]	–	–	–	–	–	0.87	0.99	0.77	0.92	–
COc1ccc2c3c(c4cc(OC)c(OC)cc4c2c1)C[C@H]1C[C@@H](OC)CCN1C3 [Compound 26a, (13S,14aS)-13-methoxy-cryptopleurine]	–	–	–	–	–	3.69	7.11	3.57	5.24	–
COc1ccc2c3c(c4cc(OC)c(OC)cc4c2c1)C[C@H]1C[C@H](OC)CCN1C3 [Compound 26b, (13R,14aS)-13-methoxy-cryptopleurine]	–	–	–	–	–	0.066	0.025	0.056	0.1	–
COc1ccc2c3c(c4cc(OC)c(OC)cc4c2c1)C[C@H]1CCCN1C3 [R-antofine, reference compound]	–	–	–	–	–	0.025	–	–	0.036	GI50 (A549; Homo sapiens, A549, Example 1, Table 1, read-out: A549 GI50): 0.022 µM; KB GI50 (KB; Example 1, Table 1): 0.036 µM
(14R,14aS)-11-oxo-14-hydroxyl-cryptopleurine [Compound 21b]	–	–	–	–	–	–	–	–	–	GI50 (KBvin): 0.12 µM; GI50 (A549; read-out: GI50 A549): 0.069 µM; GI50 (DU145): 0.2 µM; GI50 (KB): 0.30 µM
(14S,14aS)-11-oxo-14-hydroxyl-cryptopleurine [Compound 21a]	–	–	–	–	–	–	–	–	–	GI50 (KBvin): 0.025 µM; GI50 (A549; read-out: GI50 A549): 0.01 µM; GI50 (DU145): 0.033 µM; GI50 (KB): 0.025 µM
(S)-12-aza-12N-phenyl-cryptopleurine [Compound 11b]	–	–	–	–	–	–	–	–	–	GI50 (HCT-8): 28.4 µM; GI50 (A549; read-out: GI50 A549): > 40 µM; GI50 (DU145): > 40 µM; GI50 (KB): >40 µM
